Measured values as given in ChEMBL document CHEMBL3400110, “Iminopyrimidinones: a novel pharmacophore for the development of orally active renin inhibitors” (Bioorg Med Chem Lett, 2015).
Each block holds one compound with its values, some of them ahead of it. The source made the active and inactive calls. The calls are words filed in the database; no cut-off is given here.

How the values were obtained:
[1] = molecular target: T1, Renin (Homo sapiens, UniProt P00797); test: Inhibition of renin (unknown origin)
T1 sequence (P00797 whole entry): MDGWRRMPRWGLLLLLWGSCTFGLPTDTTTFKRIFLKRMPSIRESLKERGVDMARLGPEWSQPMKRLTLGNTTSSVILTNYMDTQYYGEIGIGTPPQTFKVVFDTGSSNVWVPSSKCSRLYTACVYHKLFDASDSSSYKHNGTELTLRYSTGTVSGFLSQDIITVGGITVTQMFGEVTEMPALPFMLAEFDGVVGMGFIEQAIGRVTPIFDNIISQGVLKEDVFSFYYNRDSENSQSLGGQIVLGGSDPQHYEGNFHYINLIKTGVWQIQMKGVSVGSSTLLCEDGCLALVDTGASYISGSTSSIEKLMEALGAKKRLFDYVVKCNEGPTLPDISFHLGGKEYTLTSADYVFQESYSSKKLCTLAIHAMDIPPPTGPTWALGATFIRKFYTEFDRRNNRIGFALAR

[2] = AUC (0 to 6 hrs) in rat at 10 mg/kg, po; format: ADME, organism-based; design: time < 6 hr, dose 10 mg/kg, route oral; conditions: plasma
[3] = organism: Homo sapiens; test: Clearance in human assessed per million cells; format: ADME, cell-based
[4] = Permeability across human Caco2 cells; format: ADME, cell-based; conditions: Caco-2, read-out: permeability
[5] = molecular target: hERG (KCNH2) (Homo sapiens, UniProt Q12809); test: Inhibition of human ERG at 10 uM
[6] = molecular target: Beta-secretase 1 (Homo sapiens, UniProt P56817); test: Inhibition of BACE1 (unknown origin)
[7] = molecular target: Cathepsin D (Homo sapiens, UniProt P07339); test: Inhibition of CathD (unknown origin)
[8] = test system: Rattus norvegicus; test: Antihypertensive activity in rat/human renin double transgenic rat model assessed as maximum reduction in mean arterial pressure at 10 mg/kg, po; format: functional, Artery
[9] = clinical; conditions: human, in vivo, po
[10] = molecular target: T2, Beta-secretase 2 (Homo sapiens, UniProt Q9Y5Z0); test: Inhibition of BACE2 (unknown origin)
T2 sequence (Q9Y5Z0 whole entry): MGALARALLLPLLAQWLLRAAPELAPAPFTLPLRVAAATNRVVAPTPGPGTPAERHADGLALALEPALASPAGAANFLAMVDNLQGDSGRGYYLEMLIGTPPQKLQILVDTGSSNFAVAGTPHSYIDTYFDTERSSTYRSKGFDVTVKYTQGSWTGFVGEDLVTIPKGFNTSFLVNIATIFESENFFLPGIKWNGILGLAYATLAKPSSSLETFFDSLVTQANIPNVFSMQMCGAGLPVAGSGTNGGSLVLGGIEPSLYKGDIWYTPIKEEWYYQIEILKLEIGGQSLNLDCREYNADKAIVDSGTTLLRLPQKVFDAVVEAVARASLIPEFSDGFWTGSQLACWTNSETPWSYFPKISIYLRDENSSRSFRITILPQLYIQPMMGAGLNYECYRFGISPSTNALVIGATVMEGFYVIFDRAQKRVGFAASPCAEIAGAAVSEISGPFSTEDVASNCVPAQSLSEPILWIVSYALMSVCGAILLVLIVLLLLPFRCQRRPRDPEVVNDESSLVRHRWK

[11] = molecular target: T3, Cathepsin E (Homo sapiens, UniProt P14091); test: Inhibition of CathE (unknown origin)
T3 sequence (P14091 whole entry): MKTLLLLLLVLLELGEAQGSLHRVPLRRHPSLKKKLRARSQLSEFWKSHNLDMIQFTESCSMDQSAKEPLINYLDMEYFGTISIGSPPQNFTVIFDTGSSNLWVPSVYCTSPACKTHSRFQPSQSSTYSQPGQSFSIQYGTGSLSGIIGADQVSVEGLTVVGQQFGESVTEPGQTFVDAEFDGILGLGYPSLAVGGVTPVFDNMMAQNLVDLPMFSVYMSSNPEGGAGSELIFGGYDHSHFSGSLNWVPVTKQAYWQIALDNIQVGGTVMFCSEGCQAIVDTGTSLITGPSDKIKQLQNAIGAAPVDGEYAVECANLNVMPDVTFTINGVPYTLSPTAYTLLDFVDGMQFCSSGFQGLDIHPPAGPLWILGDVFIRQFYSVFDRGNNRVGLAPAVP

[12] = Inhibition of pepsin (unknown origin); design: species or system Homo sapiens
[13] = Inhibition of CYP (unknown origin); format: ADME; conditions: human
[14] = molecular target: T4, Nuclear receptor subfamily 1 group I member 2 (Homo sapiens, UniProt O75469); test: Inhibition of PXR (unknown origin); format: ADME
T4 sequence (O75469 whole entry): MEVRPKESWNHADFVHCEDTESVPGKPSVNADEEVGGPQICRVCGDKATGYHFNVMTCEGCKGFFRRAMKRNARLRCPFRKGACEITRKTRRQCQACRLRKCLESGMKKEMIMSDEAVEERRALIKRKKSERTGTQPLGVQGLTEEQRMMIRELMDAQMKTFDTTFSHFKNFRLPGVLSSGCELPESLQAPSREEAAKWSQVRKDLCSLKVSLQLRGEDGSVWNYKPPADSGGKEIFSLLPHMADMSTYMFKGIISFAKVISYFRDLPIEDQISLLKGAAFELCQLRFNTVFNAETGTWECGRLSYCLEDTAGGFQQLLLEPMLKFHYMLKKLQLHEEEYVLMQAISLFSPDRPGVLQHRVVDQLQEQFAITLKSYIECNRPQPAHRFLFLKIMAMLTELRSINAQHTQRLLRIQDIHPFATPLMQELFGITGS

[15] = molecular target: Voltage-gated inwardly rectifying potassium channel KCNH2 (Homo sapiens, UniProt Q12809); test: Inhibition of human ERG by voltage clamp method
[16] = Protein binding in rat plasma; format: ADME, cell-free; conditions: read-out: PPB (converted)
[17] = Protein binding in human plasma; format: ADME, cell-free; conditions: read-out: PPB (converted)
[18] = organism: Homo sapiens; test: Inhibition of Na+ channel site 2 (unknown origin) at 10 uM
[19] = molecular target: Sodium-dependent dopamine transporter (Homo sapiens) (UniProt Q01959); test: Inhibition of human dopamine transporter at 10 uM
[20] = molecular target: D(1A) dopamine receptor (Homo sapiens) (UniProt P21728); test: Inhibition of human D1 receptor at 10 uM
[21] = Fraction unbound in rat plasma; format: ADME, cell-free
[22] = test system: Rattus norvegicus; test: Antihypertensive activity in rat/human renin double transgenic rat model assessed as reduction in mean arterial pressure at 10 mg/kg, po after 17 hrs; format: functional, organism-based; design: dose 10 mg/kg; conditions: Artery
[23] = test system: Rattus norvegicus; test: Antihypertensive activity in rat/human renin double transgenic rat model assessed as reduction in mean arterial pressure at 10 mg/kg, po after 20 hrs; format: functional, organism-based; design: dose 10 mg/kg; conditions: Artery
[24] = AUC in dog at 3 mg/kg, po; format: ADME, organism-based, Canis lupus familiaris; design: dose 3 mg/kg, route oral; conditions: plasma
[25] = Oral bioavailability in dog at 3 mg/kg; format: ADME, organism-based, Canis lupus familiaris; conditions: in vivo
[26] = AUC in cynomolgus monkey at 3 mg/kg, po; format: ADME, organism-based, Macaca fascicularis; design: dose 3 mg/kg, route oral; conditions: plasma
[27] = Oral bioavailability in cynomolgus monkey at 3 mg/kg; format: ADME, organism-based, Macaca fascicularis; conditions: in vivo

Cathepsin D, sequence (P07339 65-162 limits assumed): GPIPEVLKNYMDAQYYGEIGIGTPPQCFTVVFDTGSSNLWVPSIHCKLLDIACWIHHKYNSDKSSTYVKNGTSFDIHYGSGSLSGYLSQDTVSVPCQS
Cathepsin D, sequence (P07339 169-412 limits assumed): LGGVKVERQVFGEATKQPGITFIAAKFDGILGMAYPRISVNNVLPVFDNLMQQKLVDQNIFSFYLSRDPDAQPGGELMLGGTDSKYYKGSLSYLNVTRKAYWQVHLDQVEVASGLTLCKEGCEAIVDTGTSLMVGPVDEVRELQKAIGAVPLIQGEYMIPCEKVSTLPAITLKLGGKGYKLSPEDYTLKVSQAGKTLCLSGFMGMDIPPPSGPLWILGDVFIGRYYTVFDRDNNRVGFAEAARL
hERG (KCNH2), sequence (Q12809 whole entry): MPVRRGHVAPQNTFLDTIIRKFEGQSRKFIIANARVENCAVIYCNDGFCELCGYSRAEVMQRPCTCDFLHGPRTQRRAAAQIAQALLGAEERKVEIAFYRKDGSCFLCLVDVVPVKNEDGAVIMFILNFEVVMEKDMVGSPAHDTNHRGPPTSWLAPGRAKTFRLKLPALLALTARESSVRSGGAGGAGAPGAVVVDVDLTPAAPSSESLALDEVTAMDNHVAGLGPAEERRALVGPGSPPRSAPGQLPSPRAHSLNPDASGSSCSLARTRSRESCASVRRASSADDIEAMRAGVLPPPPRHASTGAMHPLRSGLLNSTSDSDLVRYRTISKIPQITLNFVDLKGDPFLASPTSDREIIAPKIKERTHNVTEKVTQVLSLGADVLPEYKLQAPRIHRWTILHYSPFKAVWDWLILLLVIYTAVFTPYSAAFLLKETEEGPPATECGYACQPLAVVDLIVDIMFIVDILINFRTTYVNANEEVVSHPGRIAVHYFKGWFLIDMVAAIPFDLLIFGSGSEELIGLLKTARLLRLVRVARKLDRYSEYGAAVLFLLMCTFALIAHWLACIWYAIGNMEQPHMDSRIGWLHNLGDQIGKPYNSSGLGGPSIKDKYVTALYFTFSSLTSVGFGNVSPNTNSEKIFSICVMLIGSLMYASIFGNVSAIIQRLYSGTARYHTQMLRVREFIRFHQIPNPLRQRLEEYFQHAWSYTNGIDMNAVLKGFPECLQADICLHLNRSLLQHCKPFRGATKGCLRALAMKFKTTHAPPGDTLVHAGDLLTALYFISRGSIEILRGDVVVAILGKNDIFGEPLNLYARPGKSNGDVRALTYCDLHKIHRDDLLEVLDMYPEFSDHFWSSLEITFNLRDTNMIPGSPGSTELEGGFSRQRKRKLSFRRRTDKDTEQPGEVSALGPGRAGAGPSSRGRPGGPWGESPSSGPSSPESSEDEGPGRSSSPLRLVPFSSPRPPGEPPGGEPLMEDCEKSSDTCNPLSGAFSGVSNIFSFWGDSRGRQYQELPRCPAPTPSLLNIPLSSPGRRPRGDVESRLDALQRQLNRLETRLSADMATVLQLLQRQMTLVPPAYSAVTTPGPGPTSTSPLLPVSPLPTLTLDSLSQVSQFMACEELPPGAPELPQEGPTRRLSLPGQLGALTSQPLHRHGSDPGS
Beta-secretase 1, sequence (P56817 whole entry): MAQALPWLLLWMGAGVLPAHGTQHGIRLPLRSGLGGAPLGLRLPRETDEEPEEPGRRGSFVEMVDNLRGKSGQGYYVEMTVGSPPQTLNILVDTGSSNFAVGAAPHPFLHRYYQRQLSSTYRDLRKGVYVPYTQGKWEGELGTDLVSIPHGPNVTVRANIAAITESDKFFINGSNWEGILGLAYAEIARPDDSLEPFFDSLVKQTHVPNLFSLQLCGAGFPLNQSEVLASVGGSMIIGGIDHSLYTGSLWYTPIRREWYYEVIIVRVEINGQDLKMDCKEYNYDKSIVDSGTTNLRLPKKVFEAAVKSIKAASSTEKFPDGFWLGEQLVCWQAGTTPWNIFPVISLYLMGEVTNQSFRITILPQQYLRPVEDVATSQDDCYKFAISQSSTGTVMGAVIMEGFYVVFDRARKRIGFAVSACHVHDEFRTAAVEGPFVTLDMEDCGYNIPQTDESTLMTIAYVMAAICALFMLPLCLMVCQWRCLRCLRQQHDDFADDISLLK
D(1A) dopamine receptor (Homo sapiens), sequence (P21728 whole entry): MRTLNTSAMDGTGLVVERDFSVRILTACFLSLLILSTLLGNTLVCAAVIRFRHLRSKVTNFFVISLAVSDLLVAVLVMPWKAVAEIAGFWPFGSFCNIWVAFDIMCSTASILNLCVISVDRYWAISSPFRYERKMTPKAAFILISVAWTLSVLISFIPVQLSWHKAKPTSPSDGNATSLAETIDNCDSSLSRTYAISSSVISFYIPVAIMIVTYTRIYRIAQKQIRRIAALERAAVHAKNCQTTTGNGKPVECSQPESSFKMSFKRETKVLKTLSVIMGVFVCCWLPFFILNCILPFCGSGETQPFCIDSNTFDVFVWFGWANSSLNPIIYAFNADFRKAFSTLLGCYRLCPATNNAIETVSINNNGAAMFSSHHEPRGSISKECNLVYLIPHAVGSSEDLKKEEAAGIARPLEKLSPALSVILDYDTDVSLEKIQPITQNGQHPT
Voltage-gated inwardly rectifying potassium channel KCNH2, sequence (Q12809 whole entry): as the sequence (Q12809 whole entry) above
Sodium-dependent dopamine transporter (Homo sapiens), sequence (Q01959 whole entry): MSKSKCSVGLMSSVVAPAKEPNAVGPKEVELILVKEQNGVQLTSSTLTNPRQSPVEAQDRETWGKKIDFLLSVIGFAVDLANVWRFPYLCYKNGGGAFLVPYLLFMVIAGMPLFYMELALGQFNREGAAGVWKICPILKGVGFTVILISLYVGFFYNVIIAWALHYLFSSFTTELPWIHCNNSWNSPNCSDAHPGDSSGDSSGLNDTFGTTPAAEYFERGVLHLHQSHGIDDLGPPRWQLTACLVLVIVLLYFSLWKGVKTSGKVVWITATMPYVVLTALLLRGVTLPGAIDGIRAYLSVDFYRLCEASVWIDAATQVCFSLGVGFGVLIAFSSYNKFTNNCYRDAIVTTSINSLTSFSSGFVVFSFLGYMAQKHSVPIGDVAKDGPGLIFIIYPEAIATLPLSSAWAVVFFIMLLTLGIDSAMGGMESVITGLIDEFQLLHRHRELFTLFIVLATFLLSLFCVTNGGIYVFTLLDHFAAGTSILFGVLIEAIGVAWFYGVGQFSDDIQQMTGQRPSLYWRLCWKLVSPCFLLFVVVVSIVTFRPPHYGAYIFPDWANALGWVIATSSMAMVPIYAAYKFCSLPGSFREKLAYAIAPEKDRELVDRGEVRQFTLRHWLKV

SMILES: CC(C)[C@]1(C)CC(=O)N(Cc2cccc(C(=O)NCc3ccccc3)c2)C(=N)N1
Ki [1]: 0.056 µM
Ki [6]: > 10 µM
Ki [7]: 2.7 µM
AUC(0-t) at 6 h [2]: 0.031 µM·h
CL [3]: 3.7 µL/min
Papp [4]: 0.09 ×10⁻⁶ cm/s

SMILES: COCCCOc1cc(C[C@@H](C[C@H](N)[C@@H](O)C[C@H](C(=O)NCC(C)(C)C(N)=O)C(C)C)C(C)C)ccc1OC
Activity [8]: 43 mmHg
bioavailability [9]: 2.5%

SMILES: CN[C@H](CNC(=O)N1CCC[C@@H]([C@@H](OCCNC(=O)OC)c2cccc(Cl)c2)C1)C[C@H]1CCCOC1 [VTP-27999]
IC50 [1]: 0.0005 µM

SMILES: CC(C)[C@]1(C)CC(=O)N(Cc2cccc(C(=O)N[C@@H](C)c3ccccc3)c2)C(=N)N1
Ki [1]: 0.0022 µM
AUC(0-t) at 6 h [2]: 0.405 µM·h

SMILES: CC(C)[C@]1(C)CC(=O)N(Cc2cccc(C(=O)N[C@H](C)c3ccccc3)c2)C(=N)N1
Ki [1]: 0.086 µM
AUC(0-t) at 6 h [2]: 0.173 µM·h

SMILES: C[C@@]1(c2ccc3sccc3c2)CC(=O)N(Cc2cccc(C(=O)NCc3ccccc3)c2)C(=N)N1
Ki [1]: 0.082 µM
Ki [6]: 3.82 µM
Ki [7]: 19.5 µM
AUC(0-t) at 6 h [2]: 0.049 µM·h

SMILES: CC(C)[C@]1(C)CC(=O)N(Cc2cc(F)cc(C(=O)N[C@@H](C)c3ccccc3)c2)C(=N)N1
Ki [1]: 0.0006 µM
Ki [6]: > 10 µM
Ki [7]: 0.18 µM
AUC(0-t) at 6 h [2]: 6.52 µM·h
CL [3]: 4 µL/min
Ki [10]: 0.48 µM
Ki [11]: 1.1 µM
Ki [12]: > 10 µM
INH [13]: > 30 µM
INH [14]: > 30 µM
IC50 [15]: 9 µM
fraction unbound [16]: 0.059
fraction unbound [17]: 0.058
inhibition [18]: 79%
inhibition [19]: 51%
inhibition [20]: 64%
fraction unbound [21]: 0.059
Activity [8]: 66 mmHg
Activity [22]: Active
Activity [23]: Active
AUC [24]: 3 µM·h
bioavailability [25]: 38%
AUC [26]: 1 µM·h
bioavailability [27]: 9%

The next lines start with results.

Ki [1]: 0.019 µM
AUC(0-t) at 6 h [2]: 2.25 µM·h
CL [3]: 7.6 µL/min
Papp [4]: 6.7 ×10⁻⁶ cm/s
SMILES: CC(C)[C@]1(C)CC(=O)N(Cc2cc(F)cc(N3C[C@@H](c4ccccc4)CC3=O)c2)C(=N)N1
inhibition at 10 µM [5]: 85%

Ki [1]: 0.002 µM
SMILES: CC(C)[C@]1(C)CC(=O)N(Cc2cccc(N3CC(c4cccc(Cl)c4)CC3=O)c2)C(=N)N1 (stereo partly drawn)
inhibition at 10 µM [5]: 92%

Ki [1]: 0.044 µM
AUC(0-t) at 6 h [2]: 2.04 µM·h
Papp [4]: 4.2 ×10⁻⁶ cm/s
SMILES: CC(C)[C@]1(C)CC(=O)N(Cc2cccc(N3C[C@@H](c4ccccc4)CC3=O)c2)C(=N)N1

Ki [1]: 0.015 µM
AUC(0-t) at 6 h [2]: 0.595 µM·h
SMILES: CC(C)[C@]1(C)CC(=O)N(Cc2ccnc(N3CC[C@H](c4ccccc4)C3)c2)C(=N)N1
inhibition at 10 µM [5]: 72%

Ki [1]: 0.42 µM
SMILES: CC(C)[C@]1(C)CC(=O)N(Cc2cccc(N3C[C@H](c4ccccc4)CC3=O)c2)C(=N)N1

Ki [1]: 0.006 µM
AUC(0-t) at 6 h [2]: 2.44 µM·h
SMILES: CC(C)[C@]1(C)CC(=O)N(Cc2ccnc(N3C[C@@H](c4ccccc4)CC3=O)c2)C(=N)N1
inhibition at 10 µM [5]: 77%
